According to patent US4824941A, “Specific antibody to the native form of 2'5'-oligonucleotides, the method of preparation and the use as reagents in immunoassays or for binding 2'5'-oligonucleotides in biological systems” (priority 1988, dated 1989):
Each block holds one compound with its values, some of them ahead of it.

What was measured:
[1] = target: specific antibody to 2'5'-oligo(A); experiment: Competitive binding radio-immune assay (inhibition of binding of [32P]-labelled 2'5'A tetramer pCp probe to antibody, nitrocellulose filter); settings: 25 μl, 0°, 1 hr; [32P] 2'5'A tetramer pCp probe
Method: The titers of the antisera are determined from the reciprocal of the dilution which gives 50% retention of the radioactivity to a nitrocellulose filter. The antiserum dilution is incubated in 25 μl of 20 mM KOAc, 10 mM HEPES-KOH, pH 7.4, 1.5 mM Mg(OAc)2 containing 1 mg/ml bovine serum albumin (BSA) and 5-6000 cpm of [^32 P] terminally labelled 2'5'A tetramer pCp (Amersham International: specific activity, approximately 3000 Ci/mmole). After incubation at 0° for 1 hr, the mixtures are diluted with 3 ml of ice cold 90 mM KCl, 20 mM Tris-HCl, pH 7.6 and passed through 25 mm discs of nitrocellulose (Millipore, type HAWP, 0.45 μ) with a filtration apparatus. The filters are washed with a further 2 portions of the same buffer, and retained radioactivity counted by Cerenkov radiation in a scintillation counter.
In the simple radio-immune assay described in Example 2, the unknown is determined by dilution of the radioactivity bound from the constant amount of known radioactive probe. […] This inhibition is a measure of the affinity of the related compound for the antibody, and will also indicate to what extent such compounds might interfere with the assay, if present in the material being analysed. […] A collection of 2'5'-adenylates and related compounds were prepared as follows. The dimer, trimer, tetramer and pentamer were obtained from the DEAE-cellulose fractionation of example 1. The tetramer was partially digested with bacterial alkaline phosphatase and the products separated by high performance liquid chromatography on a Partisil SAX column (Whatman), with 10 mM potassium phosphate buffer, pH 6.8, 20% ethanol and a gradient from 10 to 500 mM KCl. Acetyl and succinyl derivatives of the tetramer were obtained by reaction with acetic and succinic anhydride, according to the method of Example 1. Other compounds were from commercial sources.

[2] = tested on: Friend mouse erythroleukemia cells (FBU); experiment: 2'5'-oligo(A) levels in differentiating Friend erythroleukemia cells, clone FBU; format: cell-based; settings: 2% (v/v) DMSO
Method: This is an example for cells growing in culture, but is universally applicable to any biological material: cell cultures, organs, tissues, bodily fluids such as blood, urine, cerebrospinal fluids, milk or any other suitably available material. Cells in a petri dish are rapidly washed with buffered saline (this step is dispensed with in the case of bodily fluids), then enough ice cold 5% trichloracetic acid (TCA) to cover the layer of cells (3 ml for a 7 cm diameter petri dish) and the dish is kept on ice for 5 min. The TCA and detached cells are removed and centrifuged to remove the insoluble material, and the dish and pellet are re-extracted with a similar volume of 5% TCA and the supernatants pooled. Alternatively, in the case of a cell suspension culture, the cells are pelleted by centrifugation at room temperature, the cells resuspended in a volume of buffered saline equal to the volume of the pellet, and approximately 10 volumes of 5% TCA are added. The insoluble material is removed by centrifugation and the pellet extracted with 1/2 the previous volume of 5% TCA. The supernatants are pooled. All operations with TCA are performed between 0° C. and 5° C. The pooled supernatants are freed of TCA by extraction with an equal volume of 30% (v/v) tri-N-octylamine in Freon 113 (Dow Chemicals). The upper aqueous phase is collected and the Freon phase re-extracted with 1/2 the preceeding volume of distilled water. Since biological material may contain ATP in the mM range, and it is desirable to measure 2'5'-oligo(A) in the nM range, it may be desirable to remove such 10^6 -fold excess of ATP, which might interfere with the assay. […]
Friend mouse erythroleukemia cells can be induced to differentiate and become erythropoietic under the influence of a variety of reagents, especially dimethylsulfoxide. […] The 2'5'-oligo(A) content is determined from the reduction of the binding of the [^32 P] labelled probe as in example 2 and 3.

[3] = tested on: Friend mouse erythroleukemia cells (N46AP); experiment: 2'5'-oligo(A) levels in differentiating Friend erythroleukemia cells, clone N46AP; format: cell-based; settings: 1.4% (v/v) DMSO
Method: This is an example for cells growing in culture, but is universally applicable to any biological material: cell cultures, organs, tissues, bodily fluids such as blood, urine, cerebrospinal fluids, milk or any other suitably available material. Cells in a petri dish are rapidly washed with buffered saline (this step is dispensed with in the case of bodily fluids), then enough ice cold 5% trichloracetic acid (TCA) to cover the layer of cells (3 ml for a 7 cm diameter petri dish) and the dish is kept on ice for 5 min. The TCA and detached cells are removed and centrifuged to remove the insoluble material, and the dish and pellet are re-extracted with a similar volume of 5% TCA and the supernatants pooled. Alternatively, in the case of a cell suspension culture, the cells are pelleted by centrifugation at room temperature, the cells resuspended in a volume of buffered saline equal to the volume of the pellet, and approximately 10 volumes of 5% TCA are added. The insoluble material is removed by centrifugation and the pellet extracted with 1/2 the previous volume of 5% TCA. The supernatants are pooled. All operations with TCA are performed between 0° C. and 5° C. The pooled supernatants are freed of TCA by extraction with an equal volume of 30% (v/v) tri-N-octylamine in Freon 113 (Dow Chemicals). The upper aqueous phase is collected and the Freon phase re-extracted with 1/2 the preceeding volume of distilled water. Since biological material may contain ATP in the mM range, and it is desirable to measure 2'5'-oligo(A) in the nM range, it may be desirable to remove such 10^6 -fold excess of ATP, which might interfere with the assay. The ATP and other nucleotides which might interfere with the assay may then be removed chromatographically with DEAE cellulose (Whatman DE-52) equilibrated with 125 mM NH4 HCO3 (pH 7.8). The loading ratio is the same as for the preparative columns of example 1, but microcolumns of 200 μl are optimal for this analytical scale. The column is washed with 15 ml of the same buffer to remove the ATP and other unbound material. The 2'5'-oligo(A) is eluted with 2 ml of 0.5M NH4 HCO3, and the samples are lyophilized after addition of 1/10th volume of ethanol. The samples may be stored indefinitely in anhydrous form and re-dissolved with suitable volumes of solvent for the radio-immuno assay as described in example 3.
Friend mouse erythroleukemia cells can be induced to differentiate and become erythropoietic under the influence of a variety of reagents, especially dimethylsulfoxide. Such cells are also known to produce the enzyme 2'5'-oligo(A) synthetase. Before the method of the present invention, it was not possible to determine the 2'5'oligo(A) directly in these cells. The determination is described in this example. The Friend cells (clone FBU or N46AP) are grown in Dulbecco's modified Eagle's Medium containing 10% fetal calf serum, 2% (v/v) dimethylsulfoxide for FBU or 1.4% (v/v) DMSO for N46 AP and 1 mM glutamine. The cells are diluted with the same medium daily to maintain a density of 5.10^5 cells per ml. At various times, 30 ml cultures are collected and processed as described in the preceeding example. The lyophilized material is dissolved in the buffer corresponding to the reaction mixture for the assay, as in example 2, but containing 0.1 mg/ml of bovine serum albumin. The 2'5'-oligo(A) content is determined from the reduction of the binding of the [^32 P] labelled probe as in example 2 and 3.

[4] = tested on: 2'5'-oligo(A) synthetase; experiment: 2'5'-oligo(A) synthetase in 3T3 cells, conventional assay ([3H]-ATP to [3H]-2'5'-oligo(A)); format: cell-based, Swiss mouse; settings: 3T3 cells treated overnight; 10 μM prostaglandin F2α or 100 u/ml interferon; none 556, background (197)
Source text: (§1) Because of the extremely efficient reaction condition of cell-free systems, it is possible to assay low levels of 2'5'-oligo(A) synthetase. However, it is sometimes desirable to measure low levels from extremely small amounts of precious starting material. By coupling the extremely sensitive measurement of 2'5'-oligo(A) according to the methods of the present invention, with the enzymatic assay for 2'5'-oligo(A) polymerase, the enzyme can be determined with 10^5 -fold higher sensitivity than was previously possible. In the example, Swiss mouse 3T3 fibroblast cells are stimulated into a cell cycle by a variety of hormones and factors (for literature on this subject see the article "Criteria for the establishment of the biological significance of ribosomal protein phosphorylation" in Current Topics in Cellular Regulation, volume 21, 1982, pages 89-99, by J. Gordon, P. J. Nielsen, K. L. Manchester, H. Towbin, L. Jimenez de Asua and G. Thomas). […] One portion (198 μl) is analysed for conversion of the ATP to 2'5'-oligo(A) from the retention of radioactivity on an analytical DEAE cellulose column (see example 4). The other portion (2 μl) is diluted in the range 250 to 10,000-fold and the 2'5'-oligo(A) determined by the radioimmune assay (see example 3).

[5] = tested on: 2'5'-oligo(A) synthetase; experiment: 2'5'-oligo(A) synthetase in 3T3 cells, radio-immune assay of reaction product; format: cell-based, Swiss mouse; settings: 3T3 cells treated overnight; 10 μM prostaglandin F2α or 100 u/ml interferon; none 50, background 0
Source text: as §1

[6] = tested on: 2'5'-oligo(A) synthetase; settings: source of value not given; read-out: Km of the enzyme; cited from earlier work

Compound: C[S+](C)[O-] [DMSO, dimethylsulfoxide]
- 2'5'-oligo(A) ([2]; day 1 post-DMSO (day 0: 2.6)): 28 fmoles/10^6 cells
- 2'5'-oligo(A) ([2]; day 2 post-DMSO): 28 fmoles/10^6 cells
- 2'5'-oligo(A) ([2]; day 4 post-DMSO): 20 fmoles/10^6 cells
- 2'5'-oligo(A) ([3]; day 1 post-DMSO (day 0: 7.5)): 7.8 fmoles/10^6 cells
- 2'5'-oligo(A) ([3]; day 2 post-DMSO): 4.3 fmoles/10^6 cells
- 2'5'-oligo(A) ([3]; day 3 post-DMSO): 17.5 fmoles/10^6 cells
- 2'5'-oligo(A) ([3]; day 5 post-DMSO): 63 fmoles/10^6 cells
- 2'5'-oligo(A) ([3]; day 6 post-DMSO): 53 fmoles/10^6 cells

Compound: CCCCC[C@H](O)/C=C/[C@@H]1[C@@H](C/C=C\CCCC(=O)O)[C@@H](O)C[C@H]1O [prostaglandin F2α]
- [^3 H]-ATP→[^3 H]-2'5'-oligo(A) [4]: 632 cpm/assay
- Radio-immune assay for 2'5'-oligo(A) [5]: 100 pmoles/assay

Compound: pA(2'p5'A)3
- amount giving 50% inhibition of the maximal binding of the [^32 P]-labelled probe [1]: 25 fmol

Compound: Nc1ncnc2c1ncn2[C@@H]1O[C@H](COP(=O)(O)OP(=O)(O)OP(=O)(O)O)[C@@H](O)[C@H]1O [ATP]
- amount giving 50% inhibition of the maximal binding of the [^32 P]-labelled probe [1]: > 3,000,000 fmoles
- Km [6]: ~1000 µM

Compound: 5'-(phospho)3 (adenylyl 2'-5')2 adenosine [pppA(2'p5'A)2]
- amount giving 50% inhibition of the maximal binding of the [^32 P]-labelled probe [1]: 2.5 fmol

Compound: Nc1ccn([C@@H]2O[C@H](COP(=O)(O)O)[C@@H](OP(=O)(O)O)[C@H]2O)c(=O)n1 [pCp]
- amount giving 50% inhibition of the maximal binding of the [^32 P]-labelled probe [1]: > 3,000,000 fmoles

The remaining lines, values ahead:

- amount giving 50% inhibition of the maximal binding of the [^32 P]-labelled probe [1]: > 3,000,000 fmoles
Compound: Nc1ccn([C@@H]2O[C@H](COP(=O)(O)OP(=O)(O)OP(=O)(O)O)[C@@H](O)[C@H]2O)c(=O)n1 [CTP]

- amount giving 50% inhibition of the maximal binding of the [^32 P]-labelled probe [1]: > 3,000,000 fmoles
Compound: O=c1ccn([C@@H]2O[C@H](COP(=O)(O)OP(=O)(O)OP(=O)(O)O)[C@@H](O)[C@H]2O)c(=O)[nH]1 [UTP]

- amount giving 50% inhibition of the maximal binding of the [^32 P]-labelled probe [1]: > 3,000,000 fmoles
Compound: Nc1nc2c(ncn2[C@@H]2O[C@H](COP(=O)(O)OP(=O)(O)OP(=O)(O)O)[C@@H](O)[C@H]2O)c(=O)[nH]1 [GTP]

- amount giving 50% inhibition of the maximal binding of the [^32 P]-labelled probe [1]: > 3,000,000 fmoles
Compound: Nc1ncnc2c1ncn2[C@@H]1O[C@H](COP(=O)(O)OP(=O)(O)O)[C@@H](O)[C@H]1O [ADP]

- amount giving 50% inhibition of the maximal binding of the [^32 P]-labelled probe [1]: > 3,000,000 fmoles
Compound: NC(=O)C1=CN([C@@H]2O[C@H](COP(=O)(O)OP(=O)(O)OC[C@H]3O[C@@H](n4cnc5c(N)ncnc54)[C@H](O)[C@@H]3O)[C@@H](O)[C@H]2O)C=CC1 [NADH]

- amount giving 50% inhibition of the maximal binding of the [^32 P]-labelled probe [1]: > 3,000,000 fmoles
Compound: Nc1ncnc2c1ncn2[C@@H]1O[C@H](COP(=O)(O)O)[C@@H](O)[C@H]1O [AMP]
